According to ChEMBL document CHEMBL5465560, “Selectivity Literature for EUbOPEN Chemogenomic Library” (2024):

Key:
[1] = molecular target: T1, Ephrin type-B receptor 4 (Homo sapiens) (UniProt P54760); experiment: Selectivity interaction (KinomeScan (DiscoverX)) EUB0001049a EPHB4; details: at 1 µM
T1 sequence (whole entry): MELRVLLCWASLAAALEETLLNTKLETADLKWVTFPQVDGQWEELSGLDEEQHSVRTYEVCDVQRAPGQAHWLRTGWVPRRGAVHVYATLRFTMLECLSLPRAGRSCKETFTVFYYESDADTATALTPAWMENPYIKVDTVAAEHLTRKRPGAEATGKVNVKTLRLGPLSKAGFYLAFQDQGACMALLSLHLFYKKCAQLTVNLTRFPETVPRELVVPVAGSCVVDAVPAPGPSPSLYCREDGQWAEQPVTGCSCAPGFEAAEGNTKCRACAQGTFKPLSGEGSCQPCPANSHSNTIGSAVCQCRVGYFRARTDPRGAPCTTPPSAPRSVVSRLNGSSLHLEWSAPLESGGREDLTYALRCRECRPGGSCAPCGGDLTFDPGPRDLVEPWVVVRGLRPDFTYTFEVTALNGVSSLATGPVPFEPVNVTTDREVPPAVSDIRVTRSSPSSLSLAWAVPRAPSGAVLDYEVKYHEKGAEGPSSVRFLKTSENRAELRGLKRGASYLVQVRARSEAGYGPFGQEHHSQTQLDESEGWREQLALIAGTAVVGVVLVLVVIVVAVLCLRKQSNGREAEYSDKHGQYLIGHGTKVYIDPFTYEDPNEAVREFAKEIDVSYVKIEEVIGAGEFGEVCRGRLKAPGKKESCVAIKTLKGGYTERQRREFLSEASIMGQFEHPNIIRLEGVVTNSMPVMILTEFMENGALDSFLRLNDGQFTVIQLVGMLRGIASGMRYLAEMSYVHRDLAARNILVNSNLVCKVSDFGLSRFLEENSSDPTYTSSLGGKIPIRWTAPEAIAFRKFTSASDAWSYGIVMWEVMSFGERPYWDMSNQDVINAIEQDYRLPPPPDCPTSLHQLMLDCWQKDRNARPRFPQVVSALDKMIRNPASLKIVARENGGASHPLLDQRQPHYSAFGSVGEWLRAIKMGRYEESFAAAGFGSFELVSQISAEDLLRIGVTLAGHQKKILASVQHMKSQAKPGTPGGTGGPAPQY

[2] = molecular target: T2, Mitogen-activated protein kinase kinase kinase 6 (Homo sapiens) (UniProt O95382); experiment: Selectivity interaction (ActivX KiNativ screen (kinase selectivity in THP-1 cell lysates)) EUB0000639a MAP3K6; format: subcellular; details: lysate, at 1 µM
T2 sequence (whole entry): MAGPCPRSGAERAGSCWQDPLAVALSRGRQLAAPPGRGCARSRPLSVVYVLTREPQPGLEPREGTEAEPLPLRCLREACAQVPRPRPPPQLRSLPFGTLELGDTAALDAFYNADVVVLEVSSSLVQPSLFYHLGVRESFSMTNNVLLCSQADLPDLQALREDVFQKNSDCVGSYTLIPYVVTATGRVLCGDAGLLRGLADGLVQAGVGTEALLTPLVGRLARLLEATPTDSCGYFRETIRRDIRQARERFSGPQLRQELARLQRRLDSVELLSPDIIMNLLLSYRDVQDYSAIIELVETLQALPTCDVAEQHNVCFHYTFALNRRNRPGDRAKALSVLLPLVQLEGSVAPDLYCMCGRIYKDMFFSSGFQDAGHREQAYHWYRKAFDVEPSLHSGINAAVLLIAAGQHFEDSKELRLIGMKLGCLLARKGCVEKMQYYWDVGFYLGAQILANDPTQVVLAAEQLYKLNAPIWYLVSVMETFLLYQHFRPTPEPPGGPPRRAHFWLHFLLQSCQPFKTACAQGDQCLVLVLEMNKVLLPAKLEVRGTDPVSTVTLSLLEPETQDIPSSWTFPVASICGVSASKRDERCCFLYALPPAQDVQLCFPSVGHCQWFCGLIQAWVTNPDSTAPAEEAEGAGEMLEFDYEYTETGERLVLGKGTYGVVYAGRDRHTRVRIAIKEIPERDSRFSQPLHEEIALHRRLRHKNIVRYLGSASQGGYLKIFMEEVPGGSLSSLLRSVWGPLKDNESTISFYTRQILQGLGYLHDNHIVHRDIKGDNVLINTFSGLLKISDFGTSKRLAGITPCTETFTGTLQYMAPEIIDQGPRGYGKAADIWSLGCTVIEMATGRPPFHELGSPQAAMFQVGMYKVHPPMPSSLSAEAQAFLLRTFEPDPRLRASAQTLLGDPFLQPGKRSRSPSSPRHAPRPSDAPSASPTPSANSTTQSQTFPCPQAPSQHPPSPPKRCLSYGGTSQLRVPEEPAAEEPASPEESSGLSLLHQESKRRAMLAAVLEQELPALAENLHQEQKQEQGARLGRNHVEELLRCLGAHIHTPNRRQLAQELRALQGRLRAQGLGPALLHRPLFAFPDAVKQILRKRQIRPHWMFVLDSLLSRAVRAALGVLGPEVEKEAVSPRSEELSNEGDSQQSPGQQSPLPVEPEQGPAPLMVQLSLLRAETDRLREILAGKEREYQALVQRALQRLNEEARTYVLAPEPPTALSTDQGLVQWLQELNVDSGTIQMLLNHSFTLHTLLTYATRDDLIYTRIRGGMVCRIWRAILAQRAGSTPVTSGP

[3] = molecular target: Dual specificity mitogen-activated protein kinase kinase 1 (Homo sapiens, UniProt Q02750); experiment: Selectivity interaction (Kinase panel (Invitrogen)) EUB0000639a MAP2K1; details: at 200 nM
Dual specificity mitogen-activated protein kinase kinase 1, sequence (Q02750 whole entry): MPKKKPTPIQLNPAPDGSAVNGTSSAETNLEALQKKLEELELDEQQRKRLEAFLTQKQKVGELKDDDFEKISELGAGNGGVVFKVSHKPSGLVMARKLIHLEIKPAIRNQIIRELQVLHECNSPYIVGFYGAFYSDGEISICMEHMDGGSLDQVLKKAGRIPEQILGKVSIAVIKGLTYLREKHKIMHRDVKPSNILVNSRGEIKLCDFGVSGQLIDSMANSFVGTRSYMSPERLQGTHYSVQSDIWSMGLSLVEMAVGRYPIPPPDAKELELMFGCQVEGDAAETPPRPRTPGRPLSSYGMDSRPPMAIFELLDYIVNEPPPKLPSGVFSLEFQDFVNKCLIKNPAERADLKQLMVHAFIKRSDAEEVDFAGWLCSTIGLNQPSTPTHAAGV

% of inhibition [2]	% of inhibition [3]	SMILES	% of control [1]
		COc1cc(Nc2nc(C)cc(-c3cnn4nc(OC)ccc34)n2)cc(C(F)(F)F)c1	94%
-16.4%	24.2%	CC[C@@H]1[C@H](F)C(=O)N[C@@H]1COc1nccc2cc(C(N)=O)c(OC)cc12 [ZIMLOVISERTIB]	
